Read-outs that look alike come from different tables or passages of the source.
Assays:
[1] = Antioxidative capacity: inhibition of the peroxidation of lipids; format: biochemical; conditions: pure polyphenols isolated from wood material
Source text: In Tables 4A, 4B, 4C and 4D, there are represented antioxidative and free radical capturing effects of pure polyphenolic compounds and of unrefined polyphenolic compounds containing raw extracts obtained from wood bark and knotty stemwood. Tables 4A and 4B represent the antioxidative effect of a few pure polyphenols and of unrefined polyphenolic compounds containing raw extracts, obtained from wood bark and knotty stemwood. Tables 4C and 4D in turn illustrate the peroxide radicals capturing capacity of a few pure polyphenols and of unrefined, polyphenolic compounds containing raw extracts, obtained from wood bark and knotty stemwood. In Tables 4A-4D, it can be observed that the antioxidative and free radical capturing properties of solutions containing pure polyphenol compounds, obtained from wood material in hydrophilic extraction, are often remarkably different from the corresponding properties of compound mixtures containing unrefined raw extract solutions and obtained from wood material in hydrophilic extraction, owing to the synergetic effects of the compounds contained in the compound mixtures in unrefined extracts. The compound mixtures according to the invention are obtained from these unrefined raw extract solutions.

[2] = Peroxide radicals capturing capacity; format: biochemical; conditions: pure polyphenols isolated from wood material
Source text: Tables 4C and 4D further represent the free radicals capturing capacity of certain pure polyphenols and unrefined polyphenol extracts with respect to peroxide radicals. Tables 4A and 4B represent the antioxidative effect of a few pure polyphenols and of unrefined polyphenolic compounds containing raw extracts, obtained from wood bark and knotty stemwood. Tables 4C and 4D in turn illustrate the peroxide radicals capturing capacity of a few pure polyphenols and of unrefined, polyphenolic compounds containing raw extracts, obtained from wood bark and knotty stemwood. In Tables 4A-4D, it can be observed that the antioxidative and free radical capturing properties of solutions containing pure polyphenol compounds, obtained from wood material in hydrophilic extraction, are often remarkably different from the corresponding properties of compound mixtures containing unrefined raw extract solutions and obtained from wood material in hydrophilic extraction, owing to the synergetic effects of the compounds contained in the compound mixtures in unrefined extracts. The compound mixtures according to the invention are obtained from these unrefined raw extract solutions.

[3] = pure polyphenols; values marked 1: Willför et al., J. Agric. Food Chem. 51 (2003); cited from earlier work
[4] = pure polyphenols; values marked 1: Willför et al., J. Agric. Food Chem. 51, 7600-7606 (2003); cited from earlier work
[5] = system: human keratinocyte cells; format: cell-based

EC50 which inhibits 50% of the peroxidation of the lipids [1] [µg/mL]	Compound	Peroxide radicals capturing capacity [2] [mmol/g]	EC50 which inhibits 50% of the peroxidation of the lipids [3] [µg/mL]	Peroxide radicals capturing capacity [4] [mmol/g]	further results
1.135	O=C1C[C@@H](c2ccccc2)Oc2cc(O)cc(O)c21 [Pinosembrin]	0.49			
0.017	COc1cc([C@H]2c3cc(O)c(OC)cc3C[C@@H](CO)[C@@H]2CO)ccc1O [Cyclolariciresinol]	12			
0.036	Oc1ccc([C@H]2Oc3c(ccc(O)c3O)[C@@H](O)[C@H]2O)cc1O [Melacasidine]	20			
	COc1cc(C[C@@H](CO)[C@H](CO)Cc2ccc(O)c(OC)c2)ccc1O [Secoisolariciresinol]		0.037	8.5	
	Cc1cc(C(C)(C)C)c(O)c(C(C)(C)C)c1 [BTH, butylated hydroxytoluene]				EC20 (limit value by which 20% of the cultivated cells died) ([5]; human, 24 h): 5.50 ppm; times more cytotoxic than HMR powder ([5]; ratio to HMR powder): 10-20 times
	O=C1c2c(O)cc(O)cc2O[C@H](c2ccc(O)c(O)c2)[C@H]1O [Taxifolin]		0.046	16	
0.05	Oc1cc(O)cc(/C=C/c2ccccc2)c1 [Pinosylvin]	0.78			
	COc1cc(C[C@H]2COC(=O)[C@]2(O)Cc2ccc(O)c(OC)c2)ccc1O [Nortrachelogenin]		0.053	5.9	
	COc1cc(C[C@H]2C(=O)OC[C@@H]2[C@H](O)c2ccc(O)c(OC)c2)ccc1O [Hydroxymatairesinol]		0.058	5.6	
	COc1cc(C[C@H]2CO[C@H](c3ccc(O)c(OC)c3)[C@H]2CO)ccc1O [Lariciresinol]		0.126	2.7	
	COc1cc(C[C@H]2COC(=O)[C@@H]2Cc2ccc(O)c(OC)c2)ccc1O [Matairesinol]		0.099	2.9	
0.05	Oc1ccc([C@H]2Oc3c(ccc(O)c3O)[C@@H](O)[C@H]2O)cc1 [Teracasidine]	7.8			
0.488	O=C1c2c(O)cc(O)cc2O[C@H](c2ccc(O)cc2)[C@H]1O [Dihydrokaempferol]	0.78			

Compound	EC50 which inhibits 50% of the peroxidation of the lipids [1] [µg/mL]	Peroxide radicals capturing capacity [2] [mmol/g]	EC50 which inhibits 50% of the peroxidation of the lipids [3] [µg/mL]	Peroxide radicals capturing capacity [4] [mmol/g]	further results
Pinoresinol	0.02	7.8			
